Test results reported in ChEMBL document CHEMBL1201862, “PubChem BioAssay data set” (2004).
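Where inhibition never reached the appropriate level, the endpoint shown equals the highest concentration tested. Otherwise, values were interpolated linearly from a five-concentration, 48-hour dose response in 96-well plates. At the GI50, growth is halved.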 Activity calls are given as the source filed them. No stated cut-off is given here; in the data, active = GI50 up to about 1.1 µM and inactive = higher.

Legend:
Test in all cases: growth of human tumour cells (NCI), 48 h
MDA-N = test system: MDA-N
SW-620 = test system: SW-620
OVCAR-8 = test system: OVCAR-8
NCI-H522 = test system: NCI-H522
HCT-116 = test system: HCT-116
HL-60 = test system: HL-60
SN12C = test system: SN12C
HCC 2998 = test system: HCC 2998
SK-MEL-28 = test system: SK-MEL-28
HOP-92 = test system: HOP-92
MCF7 = test system: MCF7
SNB-19 = test system: SNB-19
SF-295 = test system: SF-295
786-0 = test system: 786-0
HT-29 = test system: HT-29
Malme-3M = test system: Malme-3M
SF-268 = test system: SF-268
MDA-MB-435 = test system: MDA-MB-435
UACC-257 = test system: UACC-257
M14 = test system: M14

Compound	GI50 (MDA-N)	GI50 (SW-620)	GI50 (OVCAR-8)	GI50 (NCI-H522)	GI50 (HCT-116)	GI50 (HL-60)	GI50 (SN12C)	GI50 (HCC 2998)	GI50 (SK-MEL-28)	GI50 (HOP-92)	GI50 (MCF7)	GI50 (SNB-19)	GI50 (SF-295)	GI50 (786-0)	GI50 (HT-29)	GI50 (Malme-3M)	GI50 (SF-268)	GI50 (MDA-MB-435)	GI50 (UACC-257)	GI50 (M14)
O=c1oc2c/c(=C\c3ccccc3)c(=O)c3cccc1c3-2	20.8 µM (inactive)	25.1 µM (inactive)	19.8 µM (inactive)	22.8 µM (inactive)	25.7 µM (inactive)	27.1 µM (inactive)	47.6 µM (inactive)	> 100 µM (inactive)	36.1 µM (inactive)	19.6 µM (inactive)	> 10 µM (inactive)	31.8 µM (inactive)	> 100 µM (inactive)	22.8 µM (inactive)	55.6 µM (inactive)	24.2 µM (inactive)	24.1 µM (inactive)	21.4 µM (inactive)	31.7 µM (inactive)	22.4 µM (inactive)
CC(C)=CCC/C(C)=C/CC/C(C)=C/CCN(C)CCO	3.75 µM (inactive)	3.58 µM (inactive)	11.7 µM (inactive)	6.61 µM (inactive)	4.12 µM (inactive)	1.95 µM (inactive)	12.3 µM (inactive)	2.03 µM (inactive)	8.45 µM (inactive)	3.32 µM (inactive)	2.45 µM (inactive)	8.07 µM (inactive)	3.61 µM (inactive)	2.11 µM (inactive)	11.2 µM (inactive)	3.54 µM (inactive)	12.2 µM (inactive)	4.44 µM (inactive)	8.24 µM (inactive)	1.95 µM (inactive)
O=c1oc2cc(/N=C/c3ccccc3Cl)ccc2c2ccccc12	> 100 µM (inactive)	> 100 µM (inactive)	> 100 µM (inactive)	> 100 µM (inactive)	71.3 µM (inactive)	57.1 µM (inactive)	> 100 µM (inactive)	> 100 µM (inactive)	> 100 µM (inactive)	> 100 µM (inactive)	14.2 µM (inactive)	97.5 µM (inactive)	> 100 µM (inactive)	> 100 µM (inactive)	> 100 µM (inactive)	> 100 µM (inactive)	87.1 µM (inactive)	> 100 µM (inactive)	> 100 µM (inactive)	> 100 µM (inactive)
O=c1[nH]nc(Cc2ccccc2)n1/N=C\CC/C=N\n1c(Cc2ccccc2)n[nH]c1=O	44.7 µM (inactive)	36.3 µM (inactive)	23.1 µM (inactive)	61.1 µM (inactive)	18.5 µM (inactive)	21.9 µM (inactive)	> 100 µM (inactive)	53.8 µM (inactive)	30.1 µM (inactive)	41.8 µM (inactive)	30 µM (inactive)	42.9 µM (inactive)	39.1 µM (inactive)	29.5 µM (inactive)	23.4 µM (inactive)	24.7 µM (inactive)	23.8 µM (inactive)	34.6 µM (inactive)	> 100 µM (inactive)	44.9 µM (inactive)
CN(C)CC(O)c1ccc(Cl)c2ccccc12 (stereo not given)	24.8 µM (inactive)	> 83.9 µM (inactive)	> 90.4 µM (inactive)	33.2 µM (inactive)	50 µM (inactive)	9.12 µM (inactive)	43.3 µM (inactive)	15.8 µM (inactive)	19.6 µM (inactive)	14.2 µM (inactive)	32.7 µM (inactive)	> 70 µM (inactive)	24.3 µM (inactive)	48.3 µM (inactive)	50 µM (inactive)	32.3 µM (inactive)	55.6 µM (inactive)	21.6 µM (inactive)	20.9 µM (inactive)	16.7 µM (inactive)
CCCCCCCCCCNC1CC(OC2CC(O)(C(O)CO)Cc3c(O)c4c(c(O)c32)C(=O)c2c(OC)cccc2C4=O)OC(C)C1O (stereo not given)	1.5 µM (inactive)	0.791 µM (active)	1.55 µM (inactive)	1.76 µM (inactive)	0.692 µM (active)	0.434 µM (active)	1.65 µM (inactive)	1.33 µM (inactive)	1.76 µM (inactive)	1.47 µM (inactive)	1.01 µM (active)	1.88 µM (inactive)	1.9 µM (inactive)	1.84 µM (inactive)	1.33 µM (inactive)	1.94 µM (inactive)	1.92 µM (inactive)	1.77 µM (inactive)	1.72 µM (inactive)	1.69 µM (inactive)
